Experimental data reported in patent US5736556A, “Tropane-2-aldoxime derivatives as nevro transmitter reuptake inhibitors” (NeuroSearch A/S, priority 1994, dated 1998).
pIC50: −log10 of the molar value.

Columns and labels:
[1] = target: T1, ^3 H-noradrenaline uptake (noradrenaline transporter) (Rattus norvegicus, UniProt Q63380); assay: In vitro inhibition of ^3 H-noradrenaline (^3 H-NA) uptake in hippocampal synaptosomes; assay type: biochemical, rat (male Wistar); details: ^3 H-NA 1 nM, 90 min at 37° C.
T1 construct: Hippocampi from male Wistar rats (150-200 g) are homogenized; from tissue; host or cells: P2 synaptosomes of hippocampus, male Wistar rats
Excerpt: (§1) The compounds of the invention have also been tested for their ability to inhibit reuptake of dopamine(DA) noradrenalin(NA) and serotonin(5-HT) in synaptosomes.
(§2) Specific neurotransmitter transporters/uptake sites on nerve terminals presumably function to terminate neuronal signaling by removing the neurotransmitters dopamine, noradrenaline and serotonin, respectively, from the synaptic cleft. The activity of the transporter integral proteins can be measured in vitro by synaptosomal uptake of ^3 H-dopamine, ^3 H-noradrenaline and ^3 H-serotonine, respectively.
In vitro inhibition of ^3 H-noradrenaline (^3 H-NA) uptake in hippocampal synaptosomes
(§3) Tissue preparation: Preparations are performed at 0°-4° C. unless otherwise indicated. Hippocampi from male Wistar rats (150-200 g) are homogenized for 5-10 sec in 100 volumes of ice-cold 0.32M sucrose containing 1 mM pargyline using an Ultra-Turrax homogenizer. Monoamine oxidase activity will be inhibited in the presence of pargyline. The homogenate is centrifuged at 1000×g for 10 min. The resulting supernatant is then centrifuged at 27,000×g for 50 min and the supernatant is discarded. The pellet (P2) is resuspended in oxygenated (equilibrated with an atmosphere of 96% O2 : 4% CO2 for at least 30 min) Krebs-Ringer incubation buffer (2000 ml per g of original tissue) at pH 7.2 containing 122 mM NaCl, 0.16 mM EDTA, 4.8 mM KCl, 12.7 mM Na2 HPO4, 3.0 mM NaH2 PO4, 1.2 mM MgSO4, 0.97 mM CaCl2, 10 mM glucose and 1 mM ascorbic acid.
(§4) Assay: Aliquots of 4.0 ml tissue suspension are added to 100 μl of test solution and 100 μl of ^3 H-NA (1 nM, final concentration), mixed and incubated for 90 min at 37° C. Non-specific uptake is determined using desipramine (1 μM, final concentration). After incubation the samples are poured directly onto Whatman GF/C glass fibre filters under suction. […] The amount of radioactivity on the filters is determined by conventional liquid scintillation counting. Specific uptake is calculated as the difference between total uptake and non-specific uptake. […]

[2] = target: T2, dopamine transporter (^3 H-dopamine uptake) (Rattus norvegicus, UniProt P23977); assay: In vitro inhibition of ^3 H-dopamine (^3 H-DA) uptake in striatal synaptosomes; assay type: biochemical, rat (male Wistar); details: ^3 H-DA 1 nM, 25 min at 37° C.
T2 construct: Corpi striati from male Wistar rats (150-200 g) are homogenized; from tissue; host or cells: P2 synaptosomes of corpus striatum, male Wistar rats
Excerpt: as §1, §2
In vitro inhibition of ^3 H-dopamine (^3 H-DA) uptake in striatal synaptosomes
as §3, with “Tissue preparations:” for “Tissue preparation:”, “indicated. Corpi striati” for “indicated. Hippocampi”, “resulting supermatant” for “resulting supernatant”, “buffer (8000” for “buffer (2000”, “MgSO4, 1” for “MgSO4, 0.97”
as §4, with “H-DA” for “H-NA”, “25” for “90”, “benztropine (10” for “desipramine (1”

[3] = tested on: stereotyped behaviour of the rat; assay: Abnormal stereotyped behaviour (side effect profile); assay type: in vivo; parameters: key to Activity (high intensity stereotypy): +: only stereotyped sniffing; ++: stereotyped sniffing and episodic licking; +++: continuous licking and/or biting gnawing
Excerpt: Side Effect Profile of the Compounds of the Present Invention
The side effects of cocaine and the central stimulant amphetamine derivatives involve central excitement and stimulation in animals including primates and these effects can also be observed in humans. A serious side effect of cocaine and of the amphetamine derivatives includes also the ability to provoke toxic psychotic symptoms closely resembling the mental disease schizophrenia and these include halucinations, paranoia and abnormal bizarre stereotyped mental activity and stereotypy.
The induction of stereotyped abnormal behavior in rodents thus also represents one of the most used animal models of schizophrenia in models for antipsychotic neuroleptic drugs (including haloperidol and chlorpromazine).
The development of toxic abnormal stereotyped amphetamine syndrome as described below may predict a toxic central stimulant side effect of dopamine releasing compounds in humans.
Classification of the Abnormal Stereotyped Behaviour
In general, the abnormal stereotyped behaviour after administration of amphetamine and cocaine-like central stimulant drugs can be classified into "low" and "high" intensity scores of stereotyped behaviour. […]

[4] = tested on: MPTP-induced Parkinsonism in Marmoset Monkeys; assay: Antagonism of MTPT-induced Parkinsonism in Marmoset Monkeys; assay type: in vivo, common marmoset; details: MPTP-treated marmosets, oral gavage, 0.1 to 2.5 mg/kg; for locomotor activity: 10 h
Excerpt: Antagonism of MTPT-induced Parkinsonism in Marmoset Monkeys
Administration of MPTP (1-methyl-4-phenyl-1,2,3,6-tetrahydropyridine, hydrochloride) to monkeys induce a lesion of the dopaminergic system in the brain and gives rise to parkinsonian symptoms. By subsequent administration of test-compounds, the ability of the compounds to alleviate the parkinsonian signs can be tested.
Common marmosets (weighing 350-400 g, aged 3-5 years and of either sex) were used in the study. Animals were housed alone under standard conditions at a temperature of […] and 50% relative humidity using a 12 hour light-dark cycle. Animals had free access to food and Water.
Some months before locomotor or behavioural testing began, animals were treated with MPTP (1-methyl-4-phenyl-1,2,3,6-tetrahydropyridine, hydrochloride) dissolved in sterile 0.9% saline in doses of 2 mg/kg administered subcutaneously daily for 5 days or until a clear parkinsonian state developed. The cumulative doses administered ranged between 8-12 mg/kg. During MPTP treatment and throughout the following 2-3 weeks the animals were hand fed until they had recovered enough to be able to feed themselves.
Test compounds was dissolved in 100% Tween 80 with warming to 40°-50° C. and then diluted with water. Test compounds was given by oral gavage in a volume of 2 ml/kg. In addition test compound vehicle was administered on each experimental day for comparison with drug treatments. Each animal was treated with vehicle or one of the three doses of test compound over the following weeks, with a one week period of recovery between treatments.
Rating of disability: The disability of animals were scored as follows; alertness (normal 0, sleepy 2); reaction to stimuli (normal 0, reduced 1, slow 2, absent 3); checking movements (present 0, reduced 1, absent 2); attention and eye movements (normal 0, abnormal 1); posture (normal 0, abnormal trunk 1, abnormal limbs 1, abnormal tail 1, or grossly abnormal 4); balance/coordination (normal 0, impaired 1, unstable 2, spontaneous falls 3); vocalization (normal 0, reduced 1, absent 2).
Measurement of locomotor activity: Locomotor activity was measured simultaneously for four individual animals each in a metal cage (50 w×60 l×70 h cm) with transparent plastic doors (50 w×70 h cm) similar to the home cages but fitted with eight horizontally orientated infrared photocells. […] Locomotor counts were measured as the number of light beam interuptions which occured as the animals moved about. These movement counts were accumulated in 30 minutes intervals and recorded for the 10 h duration of experimentation.
Data analysis: The mean (±) s.e.m. was calculated for time courses and accumulated locomotor counts or behavioural disability scores for the different treatment groups.

[5] = target: dopamine transporter (Mus musculus, UniProt Q61327); details: cited from earlier work
[6] = target: T3, dopamine transporter (Rattus norvegicus, UniProt P23977); details: background, in vitro, in words; cited from earlier work
T3 construct: Corpus striatum from male Wistar rats (150-200 g) is homogenized; from tissue; host or cells: corpus striatum of male Wistar rats

[7] = target: T2, dopamine transporter (^3 H-dopamine uptake); details: background, in words; cited from earlier work

T3 sequence (P23977 whole entry): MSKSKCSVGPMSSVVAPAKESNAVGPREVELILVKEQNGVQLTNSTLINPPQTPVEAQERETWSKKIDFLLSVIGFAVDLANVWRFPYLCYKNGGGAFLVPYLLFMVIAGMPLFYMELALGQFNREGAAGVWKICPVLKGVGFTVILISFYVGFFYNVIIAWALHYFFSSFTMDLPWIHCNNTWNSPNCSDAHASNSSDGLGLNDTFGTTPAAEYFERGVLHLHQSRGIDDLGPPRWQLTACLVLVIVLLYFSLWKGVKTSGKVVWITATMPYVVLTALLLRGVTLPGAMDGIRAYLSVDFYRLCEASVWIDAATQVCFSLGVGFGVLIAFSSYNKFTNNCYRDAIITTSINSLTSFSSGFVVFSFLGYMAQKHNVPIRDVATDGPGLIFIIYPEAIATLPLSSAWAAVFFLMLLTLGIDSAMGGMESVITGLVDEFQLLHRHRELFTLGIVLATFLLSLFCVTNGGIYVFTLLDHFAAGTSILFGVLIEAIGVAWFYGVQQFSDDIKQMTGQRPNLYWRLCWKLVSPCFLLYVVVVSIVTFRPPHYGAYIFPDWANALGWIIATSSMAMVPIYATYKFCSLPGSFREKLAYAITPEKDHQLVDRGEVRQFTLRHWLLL
T2 sequence (P23977 whole entry): as above
dopamine transporter (Mus musculus, UniProt Q61327), sequence (Q61327 whole entry): as the sequence (P23977 whole entry) above, with S21P, A57V, A194S, H600R, L619V counted along it
T1 sequence (Q63380 1-617): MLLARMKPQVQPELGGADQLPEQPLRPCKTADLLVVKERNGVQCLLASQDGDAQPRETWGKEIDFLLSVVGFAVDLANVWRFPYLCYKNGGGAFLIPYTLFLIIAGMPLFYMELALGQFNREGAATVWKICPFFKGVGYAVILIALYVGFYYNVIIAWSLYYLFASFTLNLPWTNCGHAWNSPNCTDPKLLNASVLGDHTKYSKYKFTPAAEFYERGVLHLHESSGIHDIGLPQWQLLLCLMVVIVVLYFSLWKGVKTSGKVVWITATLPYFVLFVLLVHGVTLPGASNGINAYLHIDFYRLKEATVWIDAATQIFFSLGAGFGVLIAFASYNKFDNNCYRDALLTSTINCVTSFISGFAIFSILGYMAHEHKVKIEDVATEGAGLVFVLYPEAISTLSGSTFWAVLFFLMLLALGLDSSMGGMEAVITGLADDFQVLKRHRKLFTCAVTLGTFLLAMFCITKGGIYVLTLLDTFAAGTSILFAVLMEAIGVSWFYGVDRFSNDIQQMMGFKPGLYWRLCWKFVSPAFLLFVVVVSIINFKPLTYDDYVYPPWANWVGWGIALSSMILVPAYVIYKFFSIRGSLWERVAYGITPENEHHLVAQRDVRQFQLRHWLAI

Compound: CON=C[C@@H]1[C@@H](c2ccc(Cl)c(Cl)c2)C[C@@H]2CC[C@H]1N2C (single isomer, unassigned) [(1R,2R,3S)-3-(3,4-dichlorophenyl)-tropane 2-O-methyl-aldoxime, syn-isomere]
- pIC50 [1]: 8.82
- pIC50 [2]: 8.47

Compound: CON=C[C@@H]1[C@@H](c2ccc(Cl)c(Cl)c2)C[C@@H]2CC[C@H]1N2C [NS2214, (1R,2R,3S)-3-(3,4-dichlorophenyl)tropane-2O-methyl-aldoxime]
- Activity (high intensity stereotypy) ([3]; 15 mg/kg p.o.): +++
- lowest dosis giving the activity indicated (stereotypy +++) ([3]; p.o.): 15 mg/kg
- disability scores [4]: dose-dependent decrease in disability scores
- locomotor activity [4]: dose dependent increase in locomotor activity
- locomotor activity ([4]; listed as NS 2214): dose-dependent increase in locomotor activity
- disability scores ([4]; listed as NS 2214): dose dependent decrease in disability scores

Compound: COC(=O)[C@H]1[C@@H](c2ccc(F)cc2)C[C@@H]2CC[C@H]1N2C [^3 H-WIN 35428]
- time to maximum of specific binding in the striatum ([5]; in vivo, iv): 30 min
- binding to the dopamine transporter [6]: binds selectively and with high affinity to the dopamine transporter complex

Compound: COC(=O)[C@H]1[C@@H](OC(=O)c2ccccc2)C[C@@H]2CC[C@H]1N2C [cocaine]
- inhibition of ^3 H-dopamine uptake [7]: inhibits ^3 H-dopamine uptake
- prevention of specific binding of ^3 H-WIN 35428 in vivo [5]: partly or completely prevented
- binding to the dopamine transporter [6]: binds to the dopamine transporter
